The values that follow come from ChEMBL document CHEMBL1126326, “Novel antagonists of the 5-HT3 receptor. Synthesis and structure-activity relationships of (2-alkoxybenzoyl)ureas” (J Med Chem, 1992).

Structures are written as SMILES.

For this test, the target named is T1, Serotonin 3 (5-HT3) receptor (Rattus norvegicus, UniProt P35563+Q9JJ16).
T1 sequence (P35563 whole entry): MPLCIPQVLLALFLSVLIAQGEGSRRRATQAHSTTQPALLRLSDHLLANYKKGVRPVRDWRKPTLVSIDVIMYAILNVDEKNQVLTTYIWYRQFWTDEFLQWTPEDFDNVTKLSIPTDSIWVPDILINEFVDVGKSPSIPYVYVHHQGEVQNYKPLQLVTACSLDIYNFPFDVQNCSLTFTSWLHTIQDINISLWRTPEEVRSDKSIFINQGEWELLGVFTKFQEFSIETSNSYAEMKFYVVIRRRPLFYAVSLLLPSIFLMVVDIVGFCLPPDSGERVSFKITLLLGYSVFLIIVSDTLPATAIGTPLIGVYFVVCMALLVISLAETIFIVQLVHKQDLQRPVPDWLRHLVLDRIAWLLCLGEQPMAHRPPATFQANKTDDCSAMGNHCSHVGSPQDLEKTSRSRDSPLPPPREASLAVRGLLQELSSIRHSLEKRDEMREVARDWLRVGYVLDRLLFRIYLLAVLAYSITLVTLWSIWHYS
T1 sequence (Q9JJ16 whole entry): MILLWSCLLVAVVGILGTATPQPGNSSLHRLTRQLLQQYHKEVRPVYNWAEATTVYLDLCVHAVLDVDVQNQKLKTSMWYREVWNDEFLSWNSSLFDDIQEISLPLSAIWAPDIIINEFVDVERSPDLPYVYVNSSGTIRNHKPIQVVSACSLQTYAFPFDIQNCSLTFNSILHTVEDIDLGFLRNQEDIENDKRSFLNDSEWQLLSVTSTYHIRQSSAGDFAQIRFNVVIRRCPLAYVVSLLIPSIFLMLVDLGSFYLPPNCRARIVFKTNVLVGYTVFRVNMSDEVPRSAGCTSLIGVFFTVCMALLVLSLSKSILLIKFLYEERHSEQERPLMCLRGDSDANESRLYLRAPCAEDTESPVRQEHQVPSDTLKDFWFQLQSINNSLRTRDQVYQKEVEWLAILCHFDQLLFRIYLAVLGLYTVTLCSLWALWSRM
As to the kind of experiment: In vitro antagonism of the 5-HT-3 receptor determined by inhibition of 5-HT-induced depolarization of the isolated rat vagus nerve. The class given is functional. The settings on record: read-out: pA2 (converted).

Take `COc1ccccc1C(=O)NC(=O)N[C@H]1CN2CCC1CC2`: the Kb is 7.08 nM.

`CN1CCC(OC(=O)NC(=O)c2cc(Cl)cc(Cl)c2)CC1`: the Kb was 126 nM.

Consider `COc1ccccc1C(=O)NC(=O)NC1CC2CCC(C1)N2C` (centres undefined) [listing 1 of 2 here], for which the Kb is over 31.6 nM.

For the compound `CN1C2CCC1CC(NC(=O)NC(=O)c1ccccc1OCC1CC1)C2` (centres undefined), the Kb is 1.26 nM.

Regarding `COc1ccccc1C(=O)NC(=O)N[C@@H]1CN2CCC1CC2`, the Kb was 56.2 nM.

As for `CCOc1ccccc1C(=O)NC(=O)NC1CC2CCC(C1)N2C` (centres undefined), the Kb is 2.04 nM.

As for `COc1ccc(C(=O)NC(=O)NC2CN3CCC2CC3)cc1` (centres undefined), the Kb was over 316 nM.

Take `O=C(NC(=O)c1ccccc1F)NC1CN2CCC1CC2` (centres undefined): the Kb is over 316 nM.

Take `CC(C)Oc1ccccc1C(=O)NC(=O)NC1CC2CCC(C1)N2C` (centres undefined): the Kb is 0.631 nM.

Take `Cc1ccccc1C(=O)NC(=O)NC1CN2CCC1CC2` (centres undefined): the Kb was 251 nM.

Take `COc1ccccc1C(=O)NC(=O)NC1CN2CCC1CC2` (centres undefined): the Kb was 10 nM.

For the compound `COc1cc([N+](=O)[O-])ccc1C(=O)NC(=O)NC1CC2CCC(C1)N2C` (centres undefined), the Kb is over 100 nM.

Turning to `COc1ccccc1C(=O)NC(=O)OC1CN2CCC1CC2` (centres undefined), the Kb is 36.3 nM.

`COc1cccc(OC)c1C(=O)NC(=O)NC1CN2CCC1CC2` (centres undefined): the Kb was over 316 nM.

As to `CCCOc1ccccc1C(=O)NC(=O)NC1CC2CCC(C1)N2C` (centres undefined), the Kb was 1.26 nM.

As to `CC(C)COc1ccccc1C(=O)NC(=O)NC1CC2CCC(C1)N2C` (centres undefined), the Kb is 3.16 nM.

With `CC(C)CCOc1ccccc1C(=O)NC(=O)NC1CC2CCC(C1)N2C` (centres undefined), the Kb was 6.31 nM.

Take `COc1ccccc1C(=O)NC(=O)OC1CC2CCC(C1)N2C` (centres undefined): the Kb was 17 nM.

Take `COc1ccccc1C(=O)NC(=O)NC1CC2CCCC(C1)N2C` (centres undefined): the Kb is 39.8 nM.

Take `CCCCCOc1ccccc1C(=O)NC(=O)NC1CC2CCC(C1)N2C` (centres undefined): the Kb is 31.6 nM.

For the compound `CN1C2CCC1CC(NC(=O)NC(=O)c1ccccc1O)C2` (centres undefined), the Kb was 12.6 nM.

In the case of `CCCCOc1ccccc1C(=O)NC(=O)NC1CC2CCC(C1)N2C` (centres undefined), the Kb is 2 nM.

On to `COc1ccccc1C(=O)NC(=O)NC1CC2CCC(C1)N2C` (centres undefined) [listing 2 of 2 here], for which the Kb is 2.51 nM.

With `O=C(NC(=O)c1cc(Cl)cc(Cl)c1)NC1CN2CCC1CC2` (centres undefined), the Kb was 200 nM.

Take `COc1cc(N)c(Cl)cc1C(=O)NC(=O)NC1CC2CCC(C1)N2C` (centres undefined): the Kb is 79.4 nM.

Consider `COc1ccc(Cl)cc1C(=O)NC(=O)NC1CC2CCC(C1)N2C` (centres undefined), for which the Kb was 46.8 nM.

Turning to `COc1cc(N)ccc1C(=O)NC(=O)NC1CC2CCC(C1)N2C` (centres undefined), the Kb is 158 nM.

Take `CN1[C@@H]2CC[C@H]1C[C@@H](OC(=O)c1cc(Cl)cc(Cl)c1)C2` [BEMESETRON]: the Kb is 15.8 nM.

As for `COc1cc(N)c(Cl)cc1C(=O)NC1CN2CCC1CC2` (centres undefined) [ZACOPRIDE], the Kb is 0.794 nM.
